Results on ten molecules are retold here after patent US8741906B2 (priority 2011, dated 2014).

For one assay, the target named is T1, human CB2 receptors (Homo sapiens, UniProt P34972).
T1 construct: expressed in transfected cells; host or cells: CHO cells
As to the kind of experiment: functional cAMP assay, human CB2. In kind it is cell-based. The conditions noted are these: CHO cells expressing human CB2, cAMP; read-out: human CB2 EC50. In outline:
(§1)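 CHO cells expressing human CB1 or CB2 were preincubated 30 min at 30 °C in Krebs Ringer bicarbonate with 1 mM IBMX, then exposed to compound 30 min at 30 °C. cAMP quantified by TR-FRET competition (Alexa700 antibody/ruthenium-cAMP) against a 10 μM–0.13 nM standard curve; EC50 derived.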
On the technique in general: Cyclic AMP is a second messenger, typically raised through Gs and lowered through Gi signalling.

Another assay deals with T2, human CB1 receptors (Homo sapiens, UniProt P21554).
T2 construct: expressed in transfected cells; host or cells: CHO cells
T2 sequence (P21554 whole entry): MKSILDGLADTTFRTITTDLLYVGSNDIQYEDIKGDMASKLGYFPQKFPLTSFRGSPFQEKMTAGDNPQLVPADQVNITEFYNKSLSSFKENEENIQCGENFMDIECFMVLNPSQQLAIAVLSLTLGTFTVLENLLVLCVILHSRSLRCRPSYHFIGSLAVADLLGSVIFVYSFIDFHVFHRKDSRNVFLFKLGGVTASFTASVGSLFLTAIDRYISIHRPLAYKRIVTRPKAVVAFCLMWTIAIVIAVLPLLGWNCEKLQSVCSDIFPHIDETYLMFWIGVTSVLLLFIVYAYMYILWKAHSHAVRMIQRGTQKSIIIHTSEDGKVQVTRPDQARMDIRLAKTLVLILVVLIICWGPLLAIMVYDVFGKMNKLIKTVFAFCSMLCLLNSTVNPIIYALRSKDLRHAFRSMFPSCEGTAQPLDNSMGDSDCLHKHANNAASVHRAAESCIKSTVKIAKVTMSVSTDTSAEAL
The assay is described as follows: functional cAMP assay, human CB1. In kind it is cell-based. As to conditions: CHO cells expressing human CB1, cAMP; read-out: human CB1 EC50. The procedure, abridged: as §1

T1 sequence (P34972 whole entry): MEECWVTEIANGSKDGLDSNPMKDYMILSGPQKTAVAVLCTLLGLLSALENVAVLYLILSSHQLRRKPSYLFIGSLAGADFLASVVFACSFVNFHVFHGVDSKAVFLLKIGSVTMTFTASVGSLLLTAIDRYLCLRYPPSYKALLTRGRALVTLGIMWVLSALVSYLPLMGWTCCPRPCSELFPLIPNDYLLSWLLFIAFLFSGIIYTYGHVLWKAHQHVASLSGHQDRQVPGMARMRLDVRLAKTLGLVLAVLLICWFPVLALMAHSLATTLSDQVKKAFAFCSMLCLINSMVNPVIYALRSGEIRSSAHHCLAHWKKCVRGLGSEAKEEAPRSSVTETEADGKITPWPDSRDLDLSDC

By EC50 is commonly meant the midpoint of the concentration-response curve. With `CC(C)(C)c1nc(N2CC[C@@H](O)[C@@H]2CO)c2nnn(Cc3ccccc3Cl)c2n1` [Example 52, (2S,3R)-1-[5-tert-Butyl-3-(2-chloro-benzyl)-3H-[1,2,3]triazolo[4,5-d]pyrimidin-7-yl]-2-hydroxymethyl-pyrrolidin-3-ol], the half-maximal effective concentration (EC50) at human CB2 receptors is 20.8 nM; on human CB1 receptors it was greater than 10 µM.
Turning to `CC(C)(C)c1nc(N2CCC(F)(F)C2)c2nnn(Cc3cc(Cl)ccc3Cl)c2n1` [Example 69, 5-tert-Butyl-3-(2,5-dichloro-benzyl)-7-(3,3-difluoro-pyrrolidin-1-yl)-3H-[1,2,3]triazolo[4,5-d]pyrimidine], the EC50 was 0.3 nM on human CB2 receptors and 0.276 µM on human CB1 receptors.
The corresponding values for `CC(C)(C)c1nc(OCC2CC2)c2nnn(Cc3ccccc3Cl)c2n1` [Example 210, 5-tert-Butyl-3-(2-chloro-benzyl)-7-cyclopropylmethoxy-3H-[1,2,3]triazolo[4,5-d]pyrimidine] are 16.7 nM and greater than 10 µM.
The corresponding values for `CN1CCN(c2nc(C(C)(C)C)nc3c2nnn3Cc2ccccc2Cl)CC1` [Example 4, 5-tert-Butyl-3-(2-chloro-benzyl)-7-(4-methyl-piperazin-1-yl)-3H-[1,2,3]triazolo[4,5-d]pyrimidine] are 1.4 nM and 0.19 µM.
The corresponding values for `CC(C)Oc1nc(C(C)(C)C)nc2c1nnn2Cc1ccccc1Cl` [Example 209, 5-tert-Butyl-3-(2-chloro-benzyl)-7-isopropoxy-3H-[1,2,3]triazolo[4,5-d]pyrimidine] are 16 nM and greater than 10 µM.
As to `CC(C)(C)c1nc(N2CCCS2(=O)=O)c2nnn(Cc3ccccc3Cl)c2n1` [Example 47, 5-tert-Butyl-3-(2-chloro-benzyl)-7-(1,1-dioxo-1λ6-isothiazolidin-2-yl)-3H-[1,2,3]triazolo[4,5-d]pyrimidine], the EC50 was 20.2 nM on human CB2 receptors and greater than 10 µM on human CB1 receptors.
The corresponding values for `CC(C)(C)c1nc(N2CC[C@H](O)[C@@H]2CO)c2nnn(Cc3ncccc3Cl)c2n1` [Example 167, (2S,3S)-1-[5-tert-Butyl-3-(3-chloro-pyridin-2-ylmethyl)-3H-[1,2,3]triazolo[4,5-d]pyrimidin-7-yl]-2-hydroxymethyl-pyrrolidin-3-ol] are 3.8 nM and greater than 10 µM.
The corresponding values for `CC(C)(C)c1nc(N2CC[C@H](O)C2)c2nnn(Cc3nccc(Cl)c3Cl)c2n1` [Example 148, (S)-1-[5-tert-Butyl-3-(3,4-dichloro-pyridin-2-ylmethyl)-3H-[1,2,3]triazolo[4,5-d]pyrimidin-7-yl]-pyrrolidin-3-ol] are 0.4 nM and greater than 10 µM.
The corresponding values for `CC(C)(C)c1nc(N2CC3(COC3)C2)c2nnn(Cc3ncccc3Cl)c2n1` [Example 187, 5-tert-Butyl-3-(3-chloro-pyridin-2-ylmethyl)-7-(2-oxa-6-aza-spiro[3.3]hept-6-yl)-3H-[1,2,3]triazolo[4,5-d]pyrimidine] are 0.8 nM and 0.119 µM.
For the molecule `CCNc1nc(C(C)(C)C)nc2c1nnn2Cc1ccccc1Cl` [Example 7, [5-tert-Butyl-3-(2-chloro-benzyl)-3H-[1,2,3]triazolo[4,5-d]pyrimidin-7-yl]-ethyl-amine], the EC50 on human CB2 receptors was 11.2 nM; on human CB1 receptors, greater than 10 µM.
